Source: patent US12491172B2, “Treatment of diabetes” (priority 2019, dated 2025)

How the values were obtained:
Assay type in all cases: cell-based, mouse
[1] = system: HIF-1α; assay: HIF-1α and GLUT1 protein levels in isolated pancreatic islets (immunoblotting); conditions: islets treated with GKA50 alone, 20 hours
[2] = system: isolated pancreatic islets; assay: Static batch incubation (insulin secretion) of isolated islets
[3] = system: isolated pancreatic islets; assay: Measurements of cytoplasmic free Ca2+-concentration in islets
[4] = system: HIF-1α target genes; assay: Gene expression of HIF-1α target genes in isolated islets (RT-qPCR)
[5] = system: isolated pancreatic islets; assay: Cellular hypoxia in isolated islets (pimonidazole adducts)
Description: For experiments using the hypoxic marker pimonidazole, islets were cultured overnight in RPMI 1640 with 11 mM glucose and fasted for 1 hour in RPMI 1640 with 5.5 mM glucose. Subsequently islets were moved to medium containing 5.5 mM, 11 mM or 22 mM glucose, either with or without the glucokinase activator 10 μM of the glucokinase activator GKA50 (Sigma), 50 μM nifedipine (Sigma) or 100 μM diaxozide (Sigma) as indicated (FIGS. 1A and B). Islets were cultured during 8 hours before lysis. During the last 2 hours pimonidazole (Hypoxyprobe, HPI, Inc) was added to the medium. The hypoxic sample were cultured under 8% O2 during the last 2 hours before the lysis.
Islets were sonicated in RIPA buffer (50 mM Tris-HCl pH7.4, 150 mM NaCl, 1% NP-40, 0.5% Na deoxycholate, 0.1% SDS, 1 mM EDTA, protease inhibitor mix (Complete-Mini, Roche), 0.5 mM phenylmethylsulfonyl fluoride (PMSF) and 0.5 mM dithiothreitol). Lysates were cleared by centrifugation for 30 min at 14.000 r.p.m., and proteins were separated by SDS-PAGE and blotted onto nitrocellulose membranes. […]

[6] = islets treated with GKA50 alone, 20 hours

SMILES	HIF-1α stabilization and GLUT1 protein levels [1]	basal insulin secretion ([2]; 3.3 mM glucose, after 20 hours treatment and 2 hours fasting)	insulin release at high glucose concentration ([2]; 16.7 mM glucose, after 20 hours treatment)	secretory index ([2]; GKA50-treated islets in absence (1.2) or presence (3.4) of the HIF-1α inhibitor) [fold]	insulin content ([2]; islets treated with GKA50 with or without PX-478)	speed of [Ca2+]i response to glucose ([3]; 20 μM GKA50 with or without 50 μM PX-478)	basal [Ca2+]i oscillations ([3]; 3 mM glucose, after 20 hours 20 μM GKA50 with or without 50 μM PX-478 and 2 hours fasting)	Gck mRNA level ([4]; islets treated with GKA50, compared to untreated islets)	gene expression of Glut1, Igfbp3, Hk2, Pgk1 and Pdk1 [4, 6]	mRNA expression of Ldha and Bnip3 [4, 6]	formation of pimonidazole adducts (cellular hypoxia) ([5]; isolated islets, 8 hours, 10 μM GKA50)	levels of pimonidazole adducts ([5]; islets treated with GKA50 in the presence of 50 μM nifedipine or 100 μM diaxozide)
COC[C@H](C)Oc1cc(O[C@@H](C)Cc2ccccc2)cc(C(=O)Nc2ccc(C(=O)O)cn2)c1 [GKA50]	led to HIF-1α stabilization and increased GLUT1 protein levels	dose response-dependent increase in basal insulin secretion	without impacting on insulin release at high glucose concentration	1.2	no impact on insulin content	faster response to glucose	displayed [Ca^2+]i oscillations already under basal low glucose concentration	reduced	Induction	not induced	increase in the formation of pimonidazole adducts	–
CC1=Nc2ccc(Cl)cc2S(=O)(=O)N1 [diaxozide]	–	–	–	–	–	–	–	–	–	–	–	no decrease in levels of pimonidazole adducts
